This passage reports Km results from publication PMC11187625, “New Labeled PET Analogues Enable the Functional Screening and Characterization of PET-Degrading Enzymes” (ACS Sustainable Chemistry & Engineering, 2024).

The test has as its system T1, A. niger lipase.
T1 construct: commercial preparation, Fluka Analytical
Briefly: fluorescence, 4-mU release. Type of test: biochemical, Aspergillus niger. Conditions: 0.1 M phosphate pH 7, 30 °C, 5% DMSO. From the text:
fluorescence, 4-mU release on A. niger lipase
In general, Km refers to the substrate concentration at which the rate is half of its maximum. On to `COC(=O)c1ccc(C(=O)Oc2ccc3c(C)cc(=O)oc3c2)cc1` [A, Methyl (4-Methyl-2-oxo-2H-chromen-7-yl) Terephthalate], for which the Km is 5.7 ± 0.5 µM. The same measure for `CCOCCOC(=O)c1ccc(C(=O)Oc2ccc3c(C)cc(=O)oc3c2)cc1` [B, 2-Ethoxyethyl (4-Methyl-2-oxo-2H-chromen-7-yl) Terephthalate]: 1 ± 0.1 µM; for `COC(=O)c1ccc(C(=O)OCCOC(=O)c2ccc(C(=O)Oc3ccc4c(C)cc(=O)oc4c3)cc2)cc1` [C, 2-((4-(Methoxycarbonyl)benzoyl)oxy)ethyl (4-Methyl-2-oxo-2H-chromen-7-yl) Terephthalate]: 0.6 ± 0.1 µM.
